The CheMixHub viscosity set
“And” between values parts separate entries of the source, which are not always exact repeats. Equal entries are not always repeated.

Assay: xn = mol fraction of the nth substance listed

CCCCCCCC(=O)OCC(COC(=O)CCCCCCC)OC(=O)CCCCCCC + CCCCO
viscosity [mPa·s], 101.33 kPa
Details | x1 = 0.1 | x1 = 0.2 | x1 = 0.3 | x1 = 0.4 | x1 = 0.5 | x1 = 0.6 | x1 = 0.7 | x1 = 0.8 | x1 = 0.9
298 K | 3.87 | 5.49 | 7.15 | 8.84 | 10.54 | 12.28 | 14.02 | 16.05 | 18
303 K | 3.4 | 4.73 | 6.13 | 7.53 | 8.91 | 10.29 | 11.73 | 13.34 | 14.82
308 K | 2.97 | 4.12 | 5.28 | 6.46 | 7.57 | 8.74 | 9.89 | 11.2 | 12.39
313 K | 2.62 | 3.61 | 4.59 | 5.56 | 6.51 | 7.48 | 8.44 | 9.52 | 10.52

CCCCOCCO + CCCCO
101 kPa
Details | viscosity [mPa·s]
298.15 K, x1 = 0.7025 | 2.645
303.15 K, x1 = 0.4 | 2.255
303.15 K, x1 = 0.6054 | 2.345
303.15 K, x1 = 0.8042 | 2.475
308.15 K, x1 = 0.7025 | 2.045

COC(=O)c1ccccc1 + CCCCO
viscosity [mPa·s], 100 kPa
Details | x1 = 0.05 | x1 = 0.1 | x1 = 0.2 | x1 = 0.3 | x1 = 0.45 | x1 = 0.6 | x1 = 0.749 | x1 = 0.849 | x1 = 0.899 | x1 = 0.95
293.2 K | 2.62 | 2.397 | 2.097 | 1.922 | 1.787 | 1.746 | 1.777 | 1.836 | 1.885 | 1.95
298.2 K | 2.308 | 2.119 | 1.866 | 1.719 | 1.606 | 1.574 | 1.604 | 1.659 | 1.703 | 1.761
303.2 K | 2.041 | 1.882 | 1.668 | 1.545 | 1.453 | 1.429 | 1.459 | 1.509 | 1.549 | 1.6
308.2 K | 1.813 | 1.678 | 1.5 | 1.398 | 1.32 | 1.303 | 1.333 | 1.381 | 1.417 | 1.464
313.2 K | 1.616 | 1.505 | 1.354 | 1.267 | 1.204 | 1.193 | 1.224 | 1.269 | 1.303 | 1.345

CCCCNCCO + CCCCOCCO
viscosity
Details | 293.15 K | 298.15 K | 303.15 K | 308.15 K | 313.15 K | 318.15 K | 323.15 K
101.3 kPa, x1 = 0.404 | 7.13 mPa·s | 5.95 mPa·s | 5.02 mPa·s | 4.27 mPa·s | 3.67 mPa·s | 3.18 mPa·s | 2.77 mPa·s
101.3 kPa, x1 = 0.604 | 10.3 mPa·s | 8.4 mPa·s | 6.94 mPa·s | 5.8 mPa·s | 4.89 mPa·s | 4.17 mPa·s | 3.58 mPa·s
101.33 kPa, x1 = 0.1 | 3.94 mPa·s and 3.941 mPa·s | 3.4 mPa·s and 3.405 mPa·s | 2.96 mPa·s and 2.963 mPa·s | 2.6 mPa·s and 2.598 mPa·s | 2.29 mPa·s and 2.294 mPa·s | 2.04 mPa·s and 2.038 mPa·s | 1.82 mPa·s and 1.821 mPa·s
101.33 kPa, x1 = 0.2 | 4.813 mPa·s | 4.111 mPa·s | 3.541 mPa·s | 3.075 mPa·s | 2.69 mPa·s | 2.369 mPa·s | 2.099 mPa·s
101.33 kPa, x1 = 0.3 | 5.87 mPa·s and 5.865 mPa·s | 4.95 mPa·s and 4.952 mPa·s | 4.22 mPa·s and 4.221 mPa·s | 3.63 mPa·s and 3.629 mPa·s | 3.15 mPa·s and 3.146 mPa·s | 2.75 mPa·s and 2.746 mPa·s | 2.41 mPa·s and 2.414 mPa·s
101.33 kPa, x1 = 0.4 | 7.135 mPa·s | 5.951 mPa·s | 5.019 mPa·s | 4.272 mPa·s | 3.669 mPa·s | 3.176 mPa·s | 2.77 mPa·s
101.33 kPa, x1 = 0.5 | 8.57 mPa·s and 8.573 mPa·s | 7.07 mPa·s and 7.072 mPa·s | 5.9 mPa·s and 5.901 mPa·s | 4.98 mPa·s and 4.975 mPa·s | 4.24 mPa·s and 4.236 mPa·s | 3.64 mPa·s and 3.638 mPa·s | 3.15 mPa·s and 3.149 mPa·s
101.33 kPa, x1 = 0.6 | 10.3 mPa·s | 8.404 mPa·s | 6.94 mPa·s | 5.796 mPa·s | 4.891 mPa·s | 4.166 mPa·s | 3.58 mPa·s
101.33 kPa, x1 = 0.7 | 12.21 mPa·s | 9.853 mPa·s | 8.056 mPa·s | 6.668 mPa·s | 5.582 mPa·s | 4.719 mPa·s | 4.027 mPa·s
101.33 kPa, x1 = 0.8 | 14.41 mPa·s | 11.5 mPa·s | 9.314 mPa·s | 7.641 mPa·s | 6.345 mPa·s | 5.326 mPa·s | 4.514 mPa·s
101.33 kPa, x1 = 0.9 | 16.91 mPa·s | 13.36 mPa·s | 10.72 mPa·s | 8.718 mPa·s | 7.183 mPa·s | 5.985 mPa·s | 5.042 mPa·s
